In US6251897A, “6-phenyltetrahydro-1,3-oxazin-2-one derivative and pharmaceutical composition containing the same” (Nikken Chemicals Co., LTD, priority 1996, dated 2001):

Test system: Type IV PDE
Experiment: PDE inhibitory activity, type IV isozyme (3H-cAMP hydrolysis)
Type: biochemical
Settings: partially purified from rat neutrophils, 30° C., 30 minutes
Procedure: Type I, III, IV, and V PDE isozymes were prepared to study the PDE inhibitory activities and selectivities with the compound of the invention [Trends Pharmacol. Sci., 12, 19-27 (1992)]. Type I PDE was purchased from Sigma Corp. Type III, IV, and V PDE isozymes were partially purified from rats platelets (Type III and V) or neutrophils (Type IV). Each enzyme source was homogenized in a buffer (pH 6.5) containing 20 mM bisTris, 2 mM EDTA (ethylenediamine tetraacetate), 0.1 mM PMSF (phenylmethylsulfonyl fluoride), 5 mM 2-mercaptoethanol, 0.001 mM pepstatin, and 0.01 mM leupeptin and was centrifuged at 30,000×G for 30 minutes to obtain a supernatant, which was applied to an ion exchange column (Q-sepharose First Flow, Pharmacia Corp.) and was eluted with 0 to 1M sodium acetate. Partially purified isozymes were identified by observing the effects of conventional inhibitors.
Each PDE isozyme and the test compound dissolved in DMSO (dimethyl sulfoxide) were added to 50 mM Tris-HCl buffer containing 5 mM magnesium chloride. ^3 H-cAMP (for type III and IV PDE) or ^3 H-cGMP (for type I and V PDE) were added as substrates and were reacted at 30° C. for 30 minutes. The reaction was terminated by placing the test tube in boiling water of 100° C. for 5 minutes. The nucleotides formed by PDE were broken down by 5'-nucleotidase to ^3 H-adenosine or ^3 H-guanosine. The unreacted substrate and reaction product were separated through an ion-exchange column (QAE sephadex, Pharmacia Corp.) The eluted ^3 H-nucleoside was measured for its radioactivity by a liquid scintillation counter. The inhibiting activities of the compound of the present invention are shown by the IC50 value (M). Further, the inhibitory activities of the test samples against Type I, III, and V are 1/10 or less than that against type IV.

IC50	SMILES
0.86 µM	COc1ccc(C2CCN(Cc3c(C)c4ccccc4n3C(C)=O)C(=O)O2)cc1OC1CCCC1 (stereo not shown) [Compound No. 34, 3-(1-acetyl-3-methyl-2-indolylmethyl)-6-(3-cyclopentyloxy-4-methoxyphenyl)-3,4,5,6-tetrahydro-2H-1,3-oxazin-2-one]
4.5 µM	COc1ccc(C2CCN(Cc3cnccn3)C(=O)O2)cc1OC1CCCC1 (stereo not shown) [Compound No. 37, 6-(3-cyclopentyloxy-4-methoxyphenyl) -3-(2-pyrazinylmethyl)-3,4,5,6-tetrahydro-2H-1,3-oxazin-2-one]
27 µM	COc1ccc(C2CCN(C)C(=O)O2)cc1OC1c2ccccc2CCc2ccccc21 (stereo not shown) [Compound No. 59, 6-[3-(10,11-dihydro-5H-dibenzo[a,d]cyclohepten-5-yloxy)-4-methoxyphenyl]-3-methyl-3,4,5,6-tetrahydro-2H-1,3-oxazin-2-one]
0.41 µM	COc1ccc(C2CCN(C(=O)c3ccccc3)C(=O)O2)cc1OC1CCCC1 (stereo not shown) [Compound No. 18, 3-benzoyl-6-(3-cyclopentyloxy-4-methoxyphenyl)-3,4,5,6-tetrahydro-2H-1,3-oxazin-2-one]
1.9 µM	COc1ccc(C2CCNC(=O)O2)cc1OCCOCC1CC1 (stereo not shown) [Compound No. 90, 6-[3-[2-(cyclopropylmethyloxy)ethoxy]-4-methoxyphenyl]-3,4,5,6-tetrahydro-2H-1,3-oxazin-2-one]
4.3 µM	COc1ccc(C2(c3ccccc3)CCNC(=O)O2)cc1OC1CCCC1 (stereo not shown) [Compound No. 7, 6-(3-cyclopentyloxy-4-methoxyphenyl)-6-phenyl-3,4,5,6-tetrahydro-2H-1,3-oxazin-2-one]
1.9 µM	COc1ccc(C2CCNC(=O)O2)cc1O[C@H]1CC[C@H](c2ccccc2)CC1 (relative stereo) [Compound No. 78, 6-[4-methoxy-3-(trans-4-phenylcyclohexyloxy)phenyl]-3,4,5,6-tetrahydro-2H-1,3-oxazin-2-one]
2.1 µM	CCCCN1CCC(c2ccc(OC)c(OC3CCCC3)c2)OC1=O (stereo not shown) [Compound No. 17, 3-butyl-6-(3-cyclopentyloxy-4-methoxyphenyl)-3,4,5,6-tetrahydro-2H-1,3-oxazin-2-one]
3.4 µM	COc1ccc(C2CCNC(=O)O2)cc1OCC1(C)CC1 (stereo not shown) [Compound No. 63, 6-[4-methoxy-3-[(1-methylcyclopropyl)methyloxy]phenyl]-3,4,5,6-tetrahydro-2H-1,3-oxazin-2-one]
3.3 µM	COc1ccc(C2CCN(C)C(=O)O2)cc1OCC1CCC1 (stereo not shown) [Compound No. 62, 6-(3-cyclobutylmethyloxy-4-methoxyphenyl)-3-methyl-3,4,5,6-tetrahydro-2H-1,3-oxazin-2-one]
0.26 µM	COc1ccc(C2(C)CCNC(=O)O2)cc1OCCCCCc1ccccc1 (stereo not shown) [Compound No. 45, 6-[4-methoxy-3-(5-phenylpentyloxy)phenyl]-6-methyl-3,4,5,6-tetrahydro-2H-1,3-oxazin-2-one]
3.3 µM	COc1ccc(C2CCN(C)C(=O)O2)cc1OCC1CCCC1 (stereo not shown) [Compound No. 77, 6-(3-cyclopentylmethyloxy-4-methoxyphenyl)-3-methyl-3,4,5,6-tetrahydro-2H-1,3-oxazin-2-one]
0.088 µM	COc1ccc(C2OC(=O)NCC2(C)C)cc1OC1Cc2ccccc2C1 (stereo not shown) [Compound No. 87, 5,5-dimethyl-6-[3-(2-indanyloxy)-4-methoxyphenyl]-3,4,5,6-tetrahydro-2H-1,3-oxazin-2-one]
18 µM	COc1ccc(C2(c3ccccn3)CCNC(=O)O2)cc1OC1CCCC1 (stereo not shown) [Compound No. 39, 6-(3-cyclopentyloxy-4-methoxyphenyl)-6-(2-pyridyl)-3,4,5,6-tetrahydro-2H-1,3-oxazin-2-one]
0.9 µM	COc1ccc([C@@H]2OC(=O)NC[C@H]2c2ccccc2)cc1OC1CCCC1 (relative stereo) [Compound No. 92, rel-(5R,6R)-6-(3-cyclopentyloxy-4-methoxyphenyl)-5-phenyl-3,4,5,6-tetrahydro-2H-1,3-oxazin-2-one]
52 µM	COc1ccc(C2CCNC(=O)O2)cc1OCCCN1CCN(Cc2ccccc2)CC1 (stereo not shown) [Compound No. 60, 6-[3-[3-(4-benzyl-1-piperazinyl)propoxy]-4-methoxyphenyl]-3,4,5,6-tetrahydro-2H-1,3-oxazin-2-one]
32 µM	COc1ccc(C2CCN(CCN3CCCCC3)C(=O)O2)cc1OC1CCCC1 (stereo not shown) [Compound No. 32, 6-(3-cyclopentyloxy-4-methoxyphenyl) -3-[2-(1-piperidyl)ethyl]-3,4,5,6-tetrahydro-2H-1,3-oxazin-2-one]
0.98 µM	COc1ccc(C2CCN(Cc3ccc4ccccc4c3)C(=O)O2)cc1OC1CCCC1 (stereo not shown) [Compound No. 15, 6-(3-cyclopentyloxy-4-methoxyphenyl)-3-(2-naphthylmethyl)-3,4,5,6-tetrahydro-2H-1,3-oxazin-2-one]
0.19 µM	COc1ccc(C2OC(=O)N(C)CC2(C)C)cc1OC1Cc2ccccc2C1 (stereo not shown) [Compound No. 88, 6-[3-(2-indanyloxy)-4-methoxyphenyl]-3,5,5-trimethyl-3,4,5,6-tetrahydro-2H-1,3-oxazin-2-one]
3.1 µM	COc1ccc(C2CCN(C)C(=O)O2)cc1OCCOCc1ccccc1 (stereo not shown) [Compound No. 84, 6-[3-(2-benzyloxyethoxy)-4-methoxyphenyl]-3-methyl-3,4,5,6-tetrahydro-2H-1,3-oxazin-2-one]
9.4 µM	COc1ccc(C2CCNC(=O)O2)cc1OC1c2ccccc2CCc2ccccc21 (stereo not shown) [Compound No. 58, 6-[3-(10,11-dihydro-5H-dibenzo[a,d]cyclohepten-5-yloxy)-4-methoxyphenyl]-3,4,5,6-tetrahydro-2H-1,3-oxazin-2-one]
4.6 µM	COc1ccc(C2CCN(C)C(=O)O2)cc1OCC1(C)CC1 (stereo not shown) [Compound No. 64, 6-[4-methoxy-3-[(1-methylcyclopropyl)methyloxy]phenyl]-3-methyl-3,4,5,6-tetrahydro-2H-1,3-oxazin-2-one]
3.4 µM	COc1ccc(C2CCNC(=O)O2)cc1OCCOCc1ccccc1 (stereo not shown) [Compound No. 83, 6-[3-(2-benzyloxyethoxy)-4-methoxyphenyl]-3,4,5,6-tetrahydro-2H-1,3-oxazin-2-one]
1 µM	COc1ccc(C2CCN(C)C(=O)O2)cc1OCCCCCc1ccccc1 (stereo not shown) [Compound No. 42, 6-[4-methoxy-3-(5-phenylpentyloxy)phenyl]-3-methyl-3,4,5,6-tetrahydro-2H-1,3-oxazin-2-one]
0.78 µM	COc1ccc(C2OC(=O)NCC2(C)C)cc1OC1CCCC1 (stereo not shown) [Compound No. 85, 6-(3-cyclopentyloxy-4-methoxyphenyl)-5,5-dimethyl-3,4,5,6-tetrahydro-2H-1,3-oxazin-2-one]
1.2 µM	COc1ccc(C2CCN(C)C(=O)O2)cc1O[C@H]1CC[C@H](c2ccccc2)CC1 (relative stereo) [Compound No. 79, 6-[4-methoxy-3-(trans-4-phenylcyclohexyloxy)phenyl]-3-methyl-3,4,5,6-tetrahydro-2H-1,3-oxazin-2-one]

SMILES	IC50
CCCCOc1cc(C2CCN(C)C(=O)O2)ccc1OC (stereo not shown) [Compound No. 53, 6-(3-butoxy-4-methoxyphenyl)-3-methyl-3,4,5,6-tetrahydro-2H-1,3-oxazin-2-one]	9.1 µM
CCC(CC)COc1cc(C2CCN(C)C(=O)O2)ccc1OC (stereo not shown) [Compound No. 70, 6-[3-(2-ethylbutoxy)-4-methoxyphenyl]-3-methyl-3,4,5,6-tetrahydro-2H-1,3-oxazin-2-one]	3.5 µM
